From patent US10517952B2, “Nucleophile-triggered degradable materials and methods of making and using the same” (GEORGIA TECH RESEARCH CORPORATION, priority 2014, dated 2019)

Assays:
[1] = Degradation of neat PEG-OND hydrogels (inversion test, time-lapse photography); format: physicochemical; conditions: neat gel; for Time gel is stable / collapses (inversion test): no swelling buffer
Procedure: Degradation rates of the PEG-OND hydrogels in the absence of swelling buffer varied with temperature and with the identity of OND used to form the gel. […] In comparison, gels formed using 7b were stable for more than 60 hours at 37° C., and approximately 13 hours at 50° C.
Three 500 μL 3.5 wt % hydrogels were formed with bis-ONDs 7a and 7b, and bis-EONB 8, respectively, in 2 mL vials with caps. The sealed vials were incubated in an oil bath maintained at 50° C. The samples were periodically removed from heat and the vials were inverted to determine if the gel was still intact, or whether the sample was a free-flowing liquid, as described in the main text. The gel formed between 4-PEG-SH and bis-EONB 8 in FIG. 9 was removed from heat after 5 days, and stored at room temperature in a sealed vial. The hydrogel is still intact at the time of writing (5 days at 50° C. followed by >1 year at room temperature). The inversion test was routinely used in all stability experiments to verify hydrogel integrity during incubation.
In order to observe reverse gelation upon prolonged heating of neat hydrogels, time-lapse photography was carried out. Briefly, 600 μL hydrogels comprised of 3.5 wt % 4-PEG-SH+bis-OND/EONB (7a, 7b, and 8, respectively) in pH 7.4 100 mM potassium phosphate buffer containing 7% DMSO (v/v) were formed in glass culture tubes and allowed to set for 15 minutes. A glass bead (˜160 mg, stained with blue Sharpie-brand marker to improve visibility) was placed carefully on top of each gel, and a drop of silicon oil was added to prevent evaporation at the surface of the gels. The tubes were sealed with lab parafilm and incubated in a 50° C. oil bath. Photos were collected every 2 minutes for ˜22 hours using Chronolapse software (v.1.0.4) and a Creative Labs webcam. Photographs were compiled in chronological order using iMovie software, with each photo occupying one 0.1 s frame. The resulting video is available as S1 Video, mentioned above.

[2] = Calculation of hydrogel mesh size from equilibrium swelling data; format: physicochemical; conditions: for Calculated mesh size: equilibrium-swollen gels
Procedure: Using the calculated molecular weight between crosslinks, Mc, and the method previously described by Canal and Peppas, the hydrogel mesh size was calculated. First, the root-mean-square end-to-end distance of the polymer chains in the network, (r0^2)^1/2, was calculated as follows: (r0^2)^1/2=lCn^1/2n^1/2 (Equation S10) where l is the average bond length in the polymer (0.146 nm for PEG) and Cn is the characteristic ratio of the polymer (4.0 for PEG). The average number of bonds between crosslinks, n is calculated using the following equation:
[formula] where Mc is the average molecular weight between crosslinks, calculated as described in the previous section, and Mr is the molecular weight of the repeating unit for the PEG macromer (44 g/mol). Finally, the mesh size, ξ, is calculated using the following relationship: ξ=v2,s^−1/3(r0^2)^1/2 (Equation S12) where v2, is the partial volume of polymer in the equilibrium swollen hydrogel, and is calculated using the experimentally determined equilibrium weight swelling ratios.

[3] = Equilibrium swelling, gel fraction and Mc (Flory-Rehner) of PEG-OND hydrogels; format: physicochemical; conditions: for Mc (apparent molecular weight between elastic crosslinks): calculated with the Flory-Rehner equation from swelling results; for Gel Fraction: mass of dry residue post-swelling/input mass of OND and 4-PEG-SH; for Equilibrium Swelling Ratio: mass post-swelling/mass pre-swelling, deionized water, 4° C., 24 hours, n = 3 gels
Procedure: The swelling of the PEG-OND hydrogels in deionized water was measured at 4° C. to prevent significant fragmentation during the experiment. […] An independent experiment measuring soluble fraction thiol content yielded results complementing those obtained gravimetrically (Table S3, and related discussion below). With the knowledge that small molecules can readily permeate swollen PEG-OND hydrogels (see below), detecting and modifying residual thiols in gels prepared from divalent linkers 7a and 8 by swelling in the presence of a fluorogenic OND derivative was attempted (FIG. 15, and related discussion below).
200 μL gels were prepared in pH 7.4 100 mM phosphate buffered saline containing 7% DMSO with 3.5 wt % 4-PEG-SH and the corresponding bis-, tris-, and tetra-ONDs to provide a 1:1 thiol to electrophile ratio, and allowed to cure for 20 minutes at room temperature. The mass of the gels after curing was recorded (Meq) before suspending in 5.5 mL of water. The hydrogels were stored at 4° C. during swelling to prevent significant degradation of the network during the experiment. The increase in mass of the gels was monitored periodically by decanting and blotting the gel gently with a kimwipe to remove excess water before weighing. After 24 hours swelling, when swelling had stabilized, the mass of the gel was recorded (Meq). The equilibrium mass swelling ratio was then determined using the following relationship:
After weighing equilibrium-swelled gels to determine equilibrium mass swelling ratio, the gels were freeze-dried and the residual mass was weighed (Mres). It is expected that buffer salts present in the sample when it was formed were removed by the multiple changes of swelling solvent (pure water). The mass of the remaining residue was compared to the input mass (Min) of 4-PEG-SH macromer and OND-based linker. The ratio of the residual mass and the input mass provides the fraction of material by mass incorporated into the hydrogel network (gel fraction), as shown in the following equation: […]
The apparent molecular weight between elastically-productive crosslinks (Mc) was determined from equilibrium swelling data, collected as described in section VII.1 and applying a modified form of the Flory-Rehner equation for networks formed under dilute conditions:
[formula] where Mn is the number average molecular weight for the polymeric macromer (10,000 g/mol), v is the specific volume of the polymer ([…] for PEG) V1 is the molar volume of solvent used for swelling ([…] for water), χ is the polymer-interaction parameter (0.43 for PEG-H2O and assumed constant for the described experiments). V2, and V2, are the volume fraction of polymer in the equilibrium swollen gel and the relaxed gel after curing, respectively, and are calculated as follows:
[formula] where qw is the weight swelling ratio after equilibrium swelling, qF is the weight swelling ratio after curing, ρp is the density of the polymer (1.12 g/cm^3 for PEG), ρwater=ρcure solvent is the density of swelling solvent and solvent during gel formation (1.00 g/cm^3 for water). The weight swelling ratios qw and qF are determined from data gathered in equilibrium swelling experiments using the following relationships:
[formula] where ms is the mass of the gel after equilibrium swelling, mc is the mass of the gel after curing, and md is the mass of the dried gel, or input mass of polymer and crosslinkers.
Using the formulae above, masses of hydrogel samples recorded after equilibrium swelling, curing, and drying were applied to estimate the apparent molecular weight between crosslinks, which are summarized in Table 1 of the main text. The experimentally observed Mc values for gels formed using divalent OND linkers was lower than theoretical ideal value Mc,ideal. This can be explained by the fact that the Mc,ideal values calculated for these gels (entries 1-5 of Table S1) are greater than the entanglement molecular weight for polyethylene glycol (˜4,400 g/mol). […]

[4] = Oscillatory rheology of PEG-OND hydrogels; format: physicochemical
Procedure: Oscillatory rheology was used to assess the viscoelastic properties of selected PEG-OND hydrogels. […] The truncated cone was then brought in contact with the bis-EONB/4-PEG-SH mixture before setting of the gel by positioning the tool at the measuring position. The sample was inspected for spillovers and trimmed as required. A preliminary preshearing step consisting of 30 seconds at 0.1% strain and ω=0.01 rad/s was performed to ensure good contact with the gel sample. The elastic (storage) and viscous (loss) moduli, G′ and G″, respectively, were then measured as a function of time for a constant strain of 1% and an angular frequency of 1 rad/sec. The ability to store energy is described by G′, while the amount of energy dissipated is related with G″. It was observed that the sample experienced a rapid transformation from an initial state in which G′ was not much larger than G″ to a state in which G′ was clearly predominant, as shown in FIG. 5; this is consistent with gelation. The observed transformation happened in the first few minutes after preparation, even when the hydrogel continued to rigidify for up to 2-3 hours.
The linear regime of this sample was determined by performing an oscillatory strain sweep at 37° C. The frequency sweep shown in the main text was thus performed in the linear region.
[…] In both experiments, G′>>G″.

[5] = Gelation of 4-PEG-SH with OND linkers, gelation time by inversion test; format: physicochemical
Procedure: PEG-OND hydrogels were prepared by mixing tetravalent thiol-terminated PEG (4-PEG-SH, Mw˜2,500 Da for each arm) at 3.5 weight percent and multivalent OND linkers at equimolar concentration of thiol and electrophile in phosphate buffer containing 7% DMSO by volume (FIG. 42). The reactions were mixed briefly and the gel was allowed to cure at temperature or 37° C. Gelation time was recorded as the point at which the sample no longer flowed upon inversion of the reaction vessel.
Trial gelations were performed by premixing a solution of linker 7a with four-armed thiol-terminated poly(ethylene glycol) (4-PEG-SH. Mn=10,000) in neutral water containing 17% DMSO by volume. The overall concentration of PEG macromer was varied from 0.4 wt % to 8.3 wt % while maintaining an equimolar ratio of thiol to electrophile. Under these conditions, no gels formed on standing at room temperature for five minutes.
Based on empirical observations made in these trials, subsequent gels were prepared at room temperature from 3.5 wt % 4-PEG-SH solutions in phosphate buffers containing 7% DMSO at equimolar concentrations of thiol and OND electrophile. Mixtures were mixed briefly with a vortex mixer, and the reaction vial was periodically tilted or inverted. Gelation time was recorded when the sample no longer flowed and was self-supporting. […] Gelation time at 37° C. was determined by pre-warming 4-PEG-SH macromer and OND stock solutions in a 37° C. water bath. Gel components were combined and mixed briefly by pipetting, and the sample was held in the water bath. Gelation time was determined by the inversion test, as described above.
The labeled protein solutions prepared as described in the previous section were diluted three-fold with pH 7.4 100 mM phosphate buffer and used to dissolve the 4-PEG-SH macromer at 3.76 wt %. This solution was used in an identical manner as pure 4-PEG-SH solution for the purpose of forming PEG-OND hydrogels (FIG. 45). All samples formed self-supporting hydrogels within 1 min after mixing, as determined by the inversion test.

Gel integrity on extended heating (inversion test) ([1]; 50° C.)	Gel stability by time-lapse photography, gel supporting a glass bead ([1]; heating (50° C.))	Time gel is stable / collapses (inversion test) ([1]; 37° C.)	Time gel is stable / collapses (inversion test) ([1]; 50° C.)	Average mesh size ([2]; average for equilibrium swelled hydrogels from linkers 7a, 7b and 8) [nm]	Gel stability ([4]; gel formed at pH 8.0, 4° C.)	Time to revert to the liquid state (crossover of G′ and G″) ([4]; gel formed at pH 8.0, room temperature) [min]	Storage modulus G′ versus loss modulus G″ ([4]; pH 8.0, 4° C., strain and frequency sweeps)	Gelation time ([5]; buffer pH 8.0, room temperature) [min]	Gel formation ([5]; pH 6.5-7.4)	Gel formation ([5]; pH 7.4)	SMILES	melting point [°C]	Calculated mesh size [2] [nm]	Mc (apparent molecular weight between elastic crosslinks) [3] [g/mol]	Gel Fraction [3]	Equilibrium Swelling Ratio [3]
collapsed	more stable than those made with 7a	more than 60 hours	approximately 13 hours	14.0±1.0							CCOC(=O)C1=C(C(F)(F)F)C2C=CC1(CNC(=O)CCCC(=O)NCC13C=CC(O1)C(C(F)(F)F)=C3C(=O)OCC)O2 [Linker 7b, Diethyl 1,1′-((glutaroylbis(azanediyl))bis(methylene))bis(3-(trifluoromethyl)-7-oxabicyclo[2.2.1]hepta-2,5-diene-2-carboxylate)]	166 to 169	13.1 ± 0.1	3698 ± 16	0.96 ± 0.02	1.40 ± 0.02
					fairly stable	≤ 30	G′>>G″	≤ 1.5	formed only viscous solutions	did not form self-supporting gels	COC(=O)C1=C(C(=O)OC)C2(CNC(=O)CCCC(=O)NCC34C=CC(C)(O3)C(C(=O)OC)=C4C(=O)OC)C=CC1(C)O2 [Linker 7c, Tetramethyl 4,4′-((glutaroylbis(azanediyl))bis(methylene))bis(1-methyl-7-oxabicy-clo[2.2.1]hepta-2,5-diene-2,3-dicarboxylate)]					
											CCOC(=O)C1=C(C(F)(F)F)C2C=CC1(CNC(=O)CCCC(=O)NCC13C=CC(O1)C(C(=O)OC)=C3C(=O)OC)O2 (stereo not drawn) [Linker 10, Dimethyl 1-((5-(((2-(ethoxycarbonyl)-3-(trifluoromethyl)-7-oxabicyclo[2.2.1]hepta-2,5-dien-1-yl)methyl)amino)-5-oxopentanamido)methyl)-7-oxabicyclo[2.2.1]hepta-2,5-diene-2,3-dicarboxylate]	93 to 97	15.1 ± 1.3	4112 ± 94	0.98 ± 0.04	1.87 ± 0.12
